# According to publication PMC5218480 (PLoS ONE, 2017):
# System: MV-4-11 cells
# Assay: Gene expression microarray analysis (Affymetrix PrimeView) and GSEA
# Assay type: cell-based, human
# Set-up: RFU PODN (11730768_x_at) / Fold change /veh PODN (11730768_x_at) / RFU LINC00158 (11744669_a_at) / Fold change /veh LINC00158 (11744669_a_at) / RFU DUSP10 (11751237_a_at) / Fold change /veh DUSP10 (11751237_a_at) / RFU ID3 (11757404_x_at) / Fold change /veh ID3 (11757404_x_at) / RFU PLEKHG5 (11737974_s_at) / Fold change /veh PLEKHG5 (11737974_s_at) / RFU LRRC4B (11730491_at) / Fold change /veh LRRC4B (11730491_at) / RFU GIMAP4 (11747438_a_at) / Fold change /veh GIMAP4 (11747438_a_at) / RFU KRT8 (11758183_x_at) / Fold change /veh KRT8 (11758183_x_at) / RFU CNN1 (11734310_a_at) / Fold change /veh CNN1 (11734310_a_at) / RFU VPS37D (11726825_at) / Fold change /veh VPS37D (11726825_at) / RFU C10orf10 (11716522_x_at) / Fold change /veh C10orf10 (11716522_x_at) / RFU KIR2DL2 /// KIR2DL4 /// KIR2DL5A /// KIR2DL5B /// KIR2DS1 /// KIR2DS2 /// KIR2DS3 /// KIR2DS4 /// KIR3DL3 /// KIR3DL3 /// KIR3DS1 (11738374_at) / Fold change /veh KIR2DL2 /// KIR2DL4 /// KIR2DL5A /// KIR2DL5B /// KIR2DS1 /// KIR2DS2 /// KIR2DS3 /// KIR2DS4 /// KIR3DL3 /// KIR3DL3 /// KIR3DS1 (11738374_at) / RFU C1QL1 (11718748_at) / Fold change /veh C1QL1 (11718748_at) / RFU TMPRSS4 (11747572_a_at) / Fold change /veh TMPRSS4 (11747572_a_at) / RFU HAMP (11756126_x_at) / Fold change /veh HAMP (11756126_x_at) / RFU RNFT2 (11725882_a_at) / Fold change /veh RNFT2 (11725882_a_at) / RFU NR4A2 (11747474_a_at) / Fold change /veh NR4A2 (11747474_a_at) / RFU ABCC12 (11746883_a_at) / Fold change /veh ABCC12 (11746883_a_at) / RFU TMEM136 (11760407_x_at) / Fold change /veh TMEM136 (11760407_x_at) / RFU CLDN22 /// WWC2 (11732394_at) / Fold change /veh CLDN22 /// WWC2 (11732394_at) / RFU HLA-DPB1 (11760878_x_at) / Fold change /veh HLA-DPB1 (11760878_x_at) / RFU SPINT1 (11716480_a_at) / Fold change /veh SPINT1 (11716480_a_at) / RFU GAP43 (11754022_s_at) / Fold change /veh GAP43 (11754022_s_at) / RFU A4GNT (11735810_at) / Fold change /veh A4GNT (11735810_at) / RFU PRB3 (11715151_x_at) / Fold change /veh PRB3 (11715151_x_at) / RFU TUBB4B (11761932_at) / Fold change /veh TUBB4B (11761932_at) / RFU CAPN14 (11732068_a_at) / Fold change /veh CAPN14 (11732068_a_at) / RFU TMCC2 (11721928_a_at) / Fold change /veh TMCC2 (11721928_a_at) / RFU IRGQ (11745062_a_at) / Fold change /veh IRGQ (11745062_a_at) / RFU FAM174B (11720279_a_at) / Fold change /veh FAM174B (11720279_a_at) / RFU TMPRSS4 (11748680_a_at) / Fold change /veh TMPRSS4 (11748680_a_at) / RFU FAM212B (11763350_a_at) / Fold change /veh FAM212B (11763350_a_at) / RFU PLEKHG5 (11743358_a_at) / Fold change /veh PLEKHG5 (11743358_a_at) / RFU ZSCAN30 (11745921_a_at) / Fold change /veh ZSCAN30 (11745921_a_at) / RFU CMKLR1 (11741424_a_at) / Fold change /veh CMKLR1 (11741424_a_at) / RFU LOC101060620 /// MAPK8IP1 (11723275_at) / Fold change /veh LOC101060620 /// MAPK8IP1 (11723275_at) / RFU SPTSSB (11747773_x_at) / Fold change /veh SPTSSB (11747773_x_at) / RFU PRSS12 (11739890_at) / Fold change /veh PRSS12 (11739890_at) / RFU BIN1 (11741810_x_at) / Fold change /veh BIN1 (11741810_x_at) / RFU WNT11 (11732464_a_at) / Fold change /veh WNT11 (11732464_a_at) / RFU C10orf10 (11716521_a_at) / Fold change /veh C10orf10 (11716521_a_at) / RFU C5orf56 (11738089_at) / Fold change /veh C5orf56 (11738089_at) / RFU CYB561 (11721691_x_at) / Fold change /veh CYB561 (11721691_x_at) / RFU ANKRD19P (11752326_a_at) / Fold change /veh ANKRD19P (11752326_a_at) / RFU OR2T12 /// OR2T33 /// OR2T8 (11738714_s_at) / Fold change /veh OR2T12 /// OR2T33 /// OR2T8 (11738714_s_at) / RFU VCAN (11748164_a_at) / Fold change /veh VCAN (11748164_a_at) / RFU JSRP1 (11732532_at) / Fold change /veh JSRP1 (11732532_at) / RFU KRTAP10-11 (11738290_x_at) / Fold change /veh KRTAP10-11 (11738290_x_at) / RFU MYO3A (11730013_a_at) / Fold change /veh MYO3A (11730013_a_at) / RFU EBF3 (11725865_a_at) / Fold change /veh EBF3 (11725865_a_at) / RFU CAMK2N1 (11719241_x_at) / Fold change /veh CAMK2N1 (11719241_x_at) / RFU C5orf56 (11738088_a_at) / Fold change /veh C5orf56 (11738088_a_at) / RFU OLFML3 (11715873_a_at) / Fold change /veh OLFML3 (11715873_a_at) / RFU LOC100653217 /// NTM (11731650_a_at) / Fold change /veh LOC100653217 /// NTM (11731650_a_at) / RFU MAPK11 (11762145_a_at) / Fold change /veh MAPK11 (11762145_a_at) / RFU FIZ1 (11724087_x_at) / Fold change /veh FIZ1 (11724087_x_at) / RFU OASL (11726364_x_at) / Fold change /veh OASL (11726364_x_at) / RFU SOX15 (11748057_x_at) / Fold change /veh SOX15 (11748057_x_at) / RFU CD79A (11719716_a_at) / Fold change /veh CD79A (11719716_a_at) / RFU HIST1H1D (11736915_at) / Fold change /veh HIST1H1D (11736915_at) / RFU CASKIN2 (11723855_a_at) / Fold change /veh CASKIN2 (11723855_a_at) / RFU LOC730098 (11760151_x_at) / Fold change /veh LOC730098 (11760151_x_at) / RFU OR4N2 (11742367_at) / Fold change /veh OR4N2 (11742367_at) / RFU PRRT2 (11749266_a_at) / Fold change /veh PRRT2 (11749266_a_at) / RFU SNX32 (11753110_a_at) / Fold change /veh SNX32 (11753110_a_at) / RFU CDHR5 (11726645_a_at) / Fold change /veh CDHR5 (11726645_a_at) / RFU RCAN1 (11760418_a_at) / Fold change /veh RCAN1 (11760418_a_at) / RFU FAM167A (11723789_a_at) / Fold change /veh FAM167A (11723789_a_at) / RFU FAM26E (11764081_at) / Fold change /veh FAM26E (11764081_at) / RFU ISYNA1 (11749810_s_at) / Fold change /veh ISYNA1 (11749810_s_at) / RFU ACY1 (11761880_at) / Fold change /veh ACY1 (11761880_at) / RFU 11764098_at / Fold change /veh 11764098_at / RFU SAMD14 (11745864_x_at) / Fold change /veh SAMD14 (11745864_x_at) / RFU NPB (11741838_a_at) / Fold change /veh NPB (11741838_a_at) / RFU TMPRSS6 (11731388_a_at) / Fold change /veh TMPRSS6 (11731388_a_at) / RFU KRTAP10-2 (11738614_at) / Fold change /veh KRTAP10-2 (11738614_at) / RFU ARHGAP8 /// PRR5-ARHGAP8 (11727945_x_at) / Fold change /veh ARHGAP8 /// PRR5-ARHGAP8 (11727945_x_at) / RFU KRTAP5-7 /// NADSYN1 (11734609_at) / Fold change /veh KRTAP5-7 /// NADSYN1 (11734609_at) / RFU RASL12 (11751679_a_at) / Fold change /veh RASL12 (11751679_a_at) / RFU CDKN2B (11736163_a_at) / Fold change /veh CDKN2B (11736163_a_at) / RFU PRF1 (11729649_at) / Fold change /veh PRF1 (11729649_at) / RFU, ZNF638 /// ZNF638-IT1 / Fold change vs veh, ZNF638 /// ZNF638-IT1 / RFU, PANK3 / Fold change vs veh, PANK3 / RFU, SH3YL1 / Fold change vs veh, SH3YL1 / RFU, ZEB2 / Fold change vs veh, ZEB2 / RFU, NRIP1 / Fold change vs veh, NRIP1 / RFU, PTTG1IP / Fold change vs veh, PTTG1IP / RFU, CAPN2 / Fold change vs veh, CAPN2 / RFU, MED14 / Fold change vs veh, MED14 / RFU, SNORA58 / Fold change vs veh, SNORA58 / RFU, C1orf63 / Fold change vs veh, C1orf63 / RFU, LRRFIP1 / Fold change vs veh, LRRFIP1 / RFU, NDUFAF7 / Fold change vs veh, NDUFAF7 / RFU, SLC12A2 / Fold change vs veh, SLC12A2 / RFU, IBTK / Fold change vs veh, IBTK / RFU, ESF1 / Fold change vs veh, ESF1 / Fold change vs veh, TMEM50B / RFU, TAOK1 / Fold change vs veh, TAOK1 / RFU, ACBD3 / Fold change vs veh, ACBD3 / RFU, TMA16 / Fold change vs veh, TMA16 / RFU, RWDD3 / Fold change vs veh, RWDD3 / RFU, BCAT1 / Fold change vs veh, BCAT1 / RFU, EDEM3 / Fold change vs veh, EDEM3 / RFU, TMEM33 / Fold change vs veh, TMEM33 / RFU, WDR75 / Fold change vs veh, WDR75 / RFU, AHCTF1 / Fold change vs veh, AHCTF1 / RFU, TFRC / Fold change vs veh, TFRC / RFU, ZDHHC17 / Fold change vs veh, ZDHHC17 / RFU, NOM1 / Fold change vs veh, NOM1 / RFU, ARL8B / Fold change vs veh, ARL8B / RFU, ZBTB11 / Fold change vs veh, ZBTB11 / RFU, TAMM41 / Fold change vs veh, TAMM41 / RFU, KIAA1704 /// LOC100996395 / Fold change vs veh, KIAA1704 /// LOC100996395 / RFU, ING1 / Fold change vs veh, ING1 / RFU, TRMT61B / Fold change vs veh, TRMT61B / RFU, FUBP3 / Fold change vs veh, FUBP3 / RFU, TP53 / Fold change vs veh, TP53 / RFU, TNKS2 / Fold change vs veh, TNKS2 / RFU, ZFP14 / Fold change vs veh, ZFP14 / RFU, ACTR2 / Fold change vs veh, ACTR2 / RFU, PPP3R1 / Fold change vs veh, PPP3R1 / RFU, PIK3R1 / Fold change vs veh, PIK3R1 / RFU, HNRNPA1 / Fold change vs veh, HNRNPA1 / RFU, RNF170 / Fold change vs veh, RNF170 / RFU, ZNF28 / Fold change vs veh, ZNF28 / RFU, RNGTT / Fold change vs veh, RNGTT / RFU, OGT / Fold change vs veh, OGT / RFU, BRD1 / Fold change vs veh, BRD1 / RFU, MARS / Fold change vs veh, MARS / RFU, ZNF655 / Fold change vs veh, ZNF655 / RFU, FAHD1 / Fold change vs veh, FAHD1 / RFU, BDP1 / Fold change vs veh, BDP1 / RFU, LRRCC1 / Fold change vs veh, LRRCC1 / RFU, ARID1A / Fold change vs veh, ARID1A / RFU, ZNF146 / Fold change vs veh, ZNF146 / RFU, ZNF330 / Fold change vs veh, ZNF330 / RFU, GPN3 / Fold change vs veh, GPN3 / RFU, C9orf123 / Fold change vs veh, C9orf123 / RFU, N4BP2L2 / Fold change vs veh, N4BP2L2 / RFU, ARFIP1 / Fold change vs veh, ARFIP1 / RFU, FAM179B / Fold change vs veh, FAM179B / RFU, BCL10 / Fold change vs veh, BCL10 / RFU, UHRF1BP1L / Fold change vs veh, UHRF1BP1L / RFU, BET1 / Fold change vs veh, BET1 / RFU, CNOT2 / Fold change vs veh, CNOT2 / RFU, ZNF268 / Fold change vs veh, ZNF268 / Fold change vs veh, ZNF507 / RFU, DGCR2 / Fold change vs veh, DGCR2 / RFU, WDSUB1 / Fold change vs veh, WDSUB1 / Fold change vs veh, HSP90B1 /// MIR3652 / RFU, ADSS / Fold change vs veh, ADSS / RFU, GK / Fold change vs veh, GK / RFU, ZNF148 / Fold change vs veh, ZNF148 / RFU, TAF9 / Fold change vs veh, TAF9 / RFU, SLC1A5 / Fold change vs veh, SLC1A5 / RFU, SLMO2 / Fold change vs veh, SLMO2 / RFU, ABCC4 / Fold change vs veh, ABCC4 / RFU, LOC101060439 /// RAP1B / Fold change vs veh, LOC101060439 /// RAP1B / RFU, RFX7 / Fold change vs veh, RFX7 / RFU, GTPBP10 / Fold change vs veh, GTPBP10 / RFU, CNEP1R1 / Fold change vs veh, CNEP1R1 / RFU, BIVM-ERCC5 /// ERCC5 / Fold change vs veh, BIVM-ERCC5 /// ERCC5 / RFU, ILF3 / Fold change vs veh, ILF3 / RFU 11762660_at / Fold change /veh 11762660_at / RFU VCAN (11757783_s_at) / Fold change /veh VCAN (11757783_s_at) / RFU DDX43 (11728927_at) / Fold change /veh DDX43 (11728927_at) / RFU KRT8 (11758188_x_at) / Fold change /veh KRT8 (11758188_x_at) / RFU NKD1 (11759106_at) / Fold change /veh NKD1 (11759106_at) / RFU SRD5A1 (11742802_a_at) / Fold change /veh SRD5A1 (11742802_a_at) / RFU TPSAB1 /// TPSB2 (11721975_s_at) / Fold change /veh TPSAB1 /// TPSB2 (11721975_s_at) / RFU GSTM3 (11746129_a_at) / Fold change /veh GSTM3 (11746129_a_at) / RFU IL23R (11737362_x_at) / Fold change /veh IL23R (11737362_x_at) / RFU TMEM51 (11727254_a_at) / Fold change /veh TMEM51 (11727254_a_at) / RFU PIWIL2 (11732686_x_at) / Fold change /veh PIWIL2 (11732686_x_at) / RFU ORM1 (11744905_x_at) / Fold change /veh ORM1 (11744905_x_at) / RFU CCDC152 (11743942_at) / Fold change /veh CCDC152 (11743942_at) / RFU ECM1 (11717891_a_at) / Fold change /veh ECM1 (11717891_a_at) / RFU IL23R (11748794_a_at) / Fold change /veh IL23R (11748794_a_at) / RFU TNFAIP8L3 (11732012_x_at) / Fold change /veh TNFAIP8L3 (11732012_x_at) / RFU MBOAT4 (11741988_at) / Fold change /veh MBOAT4 (11741988_at) / RFU 11764193_at / Fold change /veh 11764193_at / RFU TMEM53 (11763286_at) / Fold change /veh TMEM53 (11763286_at) / RFU MAGEB2 (11727129_at) / Fold change /veh MAGEB2 (11727129_at) / RFU TMEM200A (11744735_a_at) / Fold change /veh TMEM200A (11744735_a_at) / RFU CCDC152 (11751479_a_at) / Fold change /veh CCDC152 (11751479_a_at) / RFU FAM211A (11726209_a_at) / Fold change /veh FAM211A (11726209_a_at) / RFU RGS16 (11746705_a_at) / Fold change /veh RGS16 (11746705_a_at) / RFU VCAN (11755009_s_at) / Fold change /veh VCAN (11755009_s_at) / RFU RHOB (11743442_s_at) / Fold change /veh RHOB (11743442_s_at) / RFU RGS16 (11720943_a_at) / Fold change /veh RGS16 (11720943_a_at) / RFU RGS16 (11720944_at) / Fold change /veh RGS16 (11720944_at) / RFU, VPS4B / Fold change vs veh, VPS4B / RFU, CREB1 / Fold change vs veh, CREB1 / RFU, DNAJC13 / Fold change vs veh, DNAJC13 / RFU, GNAQ / Fold change vs veh, GNAQ / RFU, CDK5R1 / Fold change vs veh, CDK5R1 / RFU, ZRANB3 / Fold change vs veh, ZRANB3 / RFU, CUL4A / Fold change vs veh, CUL4A / RFU, CCNY / Fold change vs veh, CCNY / RFU, UFL1 / Fold change vs veh, UFL1 / RFU, COG3 / Fold change vs veh, COG3 / RFU, DIAPH2 / Fold change vs veh, DIAPH2 / RFU, SKA2 / Fold change vs veh, SKA2 / RFU, AFF3 / Fold change vs veh, AFF3 / RFU, LMF1 / Fold change vs veh, LMF1 / RFU, IPO11 / Fold change vs veh, IPO11 / RFU, DFFB / Fold change vs veh, DFFB / RFU, FOXP1 / Fold change vs veh, FOXP1 / RFU, CARD8 / Fold change vs veh, CARD8 / RFU, STRN3 / Fold change vs veh, STRN3 / RFU, ADK / Fold change vs veh, ADK / RFU, RASSF2 / Fold change vs veh, RASSF2 / RFU, WIPF1 / Fold change vs veh, WIPF1 / RFU, LARP1B / Fold change vs veh, LARP1B / RFU, RASA1 / Fold change vs veh, RASA1 / RFU, RB1 / Fold change vs veh, RB1 / RFU, PPFIA1 / Fold change vs veh, PPFIA1 / RFU, MAT2A / Fold change vs veh, MAT2A / RFU, CCT5 / Fold change vs veh, CCT5 / RFU, WDR92 / Fold change vs veh, WDR92 / RFU, CUX1 / Fold change vs veh, CUX1 / RFU, TTC7A / Fold change vs veh, TTC7A / RFU, TMEM135 / Fold change vs veh, TMEM135 / RFU, DEPTOR / Fold change vs veh, DEPTOR / RFU, CPM / Fold change vs veh, CPM / RFU, DNAJB6 / Fold change vs veh, DNAJB6 / RFU, CACNA2D3 / Fold change vs veh, CACNA2D3 / RFU, DTX4 / Fold change vs veh, DTX4 / RFU, TFCP2 / Fold change vs veh, TFCP2 / RFU, GMCL1 /// GMCL1P1 / Fold change vs veh, GMCL1 /// GMCL1P1 / RFU, AEBP2 / Fold change vs veh, AEBP2 / RFU, SNHG1 /// SNORD22 /// SNORD25 /// SNORD26 /// SNORD27 /// SNORD28 /// SNORD29 /// SNORD31 / Fold change vs veh, SNHG1 /// SNORD22 /// SNORD25 /// SNORD26 /// SNORD27 /// SNORD28 /// SNORD29 /// SNORD31 / Fold change (Aza/veh), C12orf56 (ProbeSet 11735607_a_at) / Fold change (ACY-1035/veh), C12orf56 (ProbeSet 11735607_a_at) / Fold change (Aza/veh), FGFR1OP (ProbeSet 11751329_s_at) / Fold change (ACY-1035/veh), FGFR1OP (ProbeSet 11751329_s_at) / Fold change (Aza/veh), VPS36 (ProbeSet 11739960_a_at) / Fold change (ACY-1035/veh), VPS36 (ProbeSet 11739960_a_at) / RFU SYPL1 (11715823_x_at) / Fold change /veh SYPL1 (11715823_x_at) / RFU IGFBP7 (11715501_s_at) / Fold change /veh IGFBP7 (11715501_s_at) / RFU REEP3 (11722064_at) / Fold change /veh REEP3 (11722064_at) / RFU IGLL1 (11728026_x_at) / Fold change /veh IGLL1 (11728026_x_at): dose or concentration left out as unconfirmed
# Conditions: ProbeSet 11753616_s_at; LIST B
smiles,measurement,value
Nc1ncn([C@@H]2O[C@H](CO)[C@@H](O)[C@H]2O)c(=O)n1 [azacitidine],"Fold change vs veh, ARL8B",0.84
